Source: US20040248871A1, “Use of lysyl oxidase inhibitors for cell culture and tissue engineering” (priority 2001, published 2004)

Test system: chondrocytes from the sternum of chicken embryos
Assay: Dedifferentiation of chicken embryo chondrocytes in two-dimensional culture on plastic (fluorography of 14C-proline labelled collagens, morphology)
Format: cell-based
Text: a) The experimental chondrocyte culture model is the one with the culture of chicken embryo chondrocytes on plastic in two dimensions. The embryonic state of the cells allows a high level of synthesis of the collagens, unlike the adult chondrocytes. The chicken sternum from which the chondrocytes originates Makes it possible to obtain two pure sub-populations of chondrocytes capable or not capable of subsequently hypertrophying (respectively, the chondrocytes of the cranial or caudal section of the sternum). […] The results which are described always distinguish the sub-population of the chondrocytes studied.
The cultures with 4 mM L-glutamine antibiotics, and 25 μg/ml ascorbate (factor necessary for the stability of the secreted collagen triple helix units) are continued for 2 weeks in the presence or absence of 10% serum, optionally replaced by 100 ng/ml insulin, and by 50 μg/ml βAPN. The absence of serum necessitates the addition of protective agents (1 mM cysteine and 1 mM pyruvate). A day before taking the samples, 10 μCi of 14C Proline is added to the cultures the lawns or media of which are then pepsinated (0.2 mg pepsin/ml/pH 4/24 hours) and subjected to electrophoretic (SDS PAGE gradient of 4.5 at 15% acrylamide) then fluorographic analysis. The fluorographs then reveal the only pepsin-resistant protein bands, essentially the collagens and lipocalines (proteins with lipid transport). The known position of these bands allows the indication of the dedifferentiation of the cells by the appearance of the α2 I chain of collagen I associated with the lowering of the synthesis of the collagens of cartilage type.
βAPN (50 μg/ml) is added immediately upon inoculation, to the culture medium which is renewed every 2 days and applied to the cultures of chondrocytes as well as to those of fibroblasts then of keratinocytes during the formation of the reconstructed skin. […]

N#CCCN [βAPN, β-aminopropionitrile]
effectiveness against dedifferentiation of the chondrocytes (50 μg/ml, after 2 weeks of culture): total | biochemical dedifferentiation of the chondrocytes (collagen I secreted, stopping of the synthesis of collagen X) (50 μg/ml, cranial chondrocytes, in the presence of serum, 2 weeks, 2D on plastic): totally inhibited | expression of collagen X by the hypertrophic (cranial) chondrocytes (after 3 days of culture, in the presence of serum, media and cell lawns): allows the normal expression of collagen X
